Test results from PubChem BioAssay AID328 (DTP/NCI, 2004).
Several values for one entry are separate records, joined by “and”; a condition that tells them apart may be missing. Equal values may be shown once. Toxic doses and inconclusive results are not listed.

Test system: BDF1 mice, P388 leukemia ip, median survival T/C
Test: NCI In Vivo Anticancer Drug Screen. Data for tumor model P388 Leukemia (intraperitoneal) in B6D2F1 (BDF1) mice
Conditions: endpoint: median survival time, higher = longer survival
Summary of the method: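 T/C = treated-group survival ÷ vehicle-control survival; tumour transplanted into mice before dosing.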

[1] = dose: 100.0 mg/kg/injection, schedule: Q04DX003 (ip), vehicle: saline
[2] = dose: 200.0 mg/kg/injection, schedule: Q04DX003 (ip), vehicle: saline
[3] = dose: 400.0 mg/kg/injection, schedule: Q04DX003 (ip), vehicle: saline
[4] = dose: 100.0 mg/kg/injection, schedule: Q01DX009 (ip), vehicle: Klucel (hydroxypropylcellulose) (HPC)
[5] = dose: 200.0 mg/kg/injection, schedule: Q01DX009 (ip), vehicle: Klucel (hydroxypropylcellulose) (HPC)
[6] = dose: 50.0 mg/kg/injection, schedule: Q01DX009 (ip), vehicle: saline with Tween-80
[7] = dose: 100.0 mg/kg/injection, schedule: Q01DX009 (ip), vehicle: saline with Tween-80
[8] = dose: 200.0 mg/kg/injection, schedule: Q01DX009 (ip), vehicle: saline with Tween-80
[9] = dose: 400.0 mg/kg/injection, schedule: Q04DX003 (ip), vehicle: saline sonified

In the case of C1CN(CC2COC(CN3CCOCC3)CO2)CCO1 (centres undefined), the T/C [1] is reported as 114 % of control, the T/C [2] is reported as 104 % of control and the T/C [3] is reported as 104 % of control.

OC1(O)COC(c2ccccc2)OC1 was tested, and the T/C (dose: 100.0 mg/kg/injection, schedule: Q01DX001 (ip), vehicle: Klucel (hydroxypropylcellulose) (HPC)) was 104 % of control, the T/C [4] was 120 % of control and the T/C (dose: 200.0 mg/kg/injection, schedule: Q01DX001 (ip), vehicle: Klucel (hydroxypropylcellulose) (HPC)) was 104 % of control. For the same compound, the T/C [5] was 110 % of control, the T/C (dose: 400.0 mg/kg/injection, schedule: Q01DX001 (ip), vehicle: Klucel (hydroxypropylcellulose) (HPC)) was 100 % of control and the T/C (dose: 400.0 mg/kg/injection, schedule: Q01DX009 (ip), vehicle: Klucel (hydroxypropylcellulose) (HPC)) was 115 % of control.

For C[C@]12CCC(=O)C=C1CC[C@@H]1[C@@H]2CC[C@@]2(C)[C@H]1CC[C@]2(C)O, the T/C (dose: 100.0 mg/kg/injection, schedule: Q01DX009 (sc), vehicle: steriod suspending solution) was 104 % of control, the T/C (dose: 100.0 mg/kg/injection, schedule: Q04DX003 (sc), vehicle: steriod suspending solution) was 105 % of control and the T/C (dose: 200.0 mg/kg/injection, schedule: Q01DX009 (sc), vehicle: steriod suspending solution) was 95 % of control. For the same compound, the T/C (dose: 200.0 mg/kg/injection, schedule: Q04DX003 (sc), vehicle: steriod suspending solution) was 90 % of control and the T/C (dose: 400.0 mg/kg/injection, schedule: Q04DX003 (sc), vehicle: steriod suspending solution) was 115 % of control.

With CCCCCCCCCCCCCCCC[N+](C)(C)C(C)c1ccc(OC)cc1 (centres undefined) the T/C (dose: 6.25 mg/kg/injection, schedule: Q04DX003 (ip), vehicle: saline with Tween-80) was 123 % of control.

CCN1CCN(Cc2ccccc2)C(CCl)C1 (centres undefined) was tested, and the T/C (dose: 12.5 mg/kg/injection, schedule: Q04DX003 (ip), vehicle: Klucel (hydroxypropylcellulose) (HPC)) was 100 % of control, the T/C (dose: 25.0 mg/kg/injection, schedule: Q04DX003 (ip), vehicle: Klucel (hydroxypropylcellulose) (HPC)) was 100 % of control and the T/C (dose: 50.0 mg/kg/injection, schedule: Q04DX003 (ip), vehicle: Klucel (hydroxypropylcellulose) (HPC)) was 100 % of control.

With CCCCOB(OCCCC)Oc1c(C(C)(C)C)cccc1C(C)(C)C the T/C [1] was 100 % of control, the T/C [2] was 112 % of control and the T/C [3] was 108 % of control.

With CCCCOCNc1ncccn1 the T/C [6] was 100 % of control and 105 % of control, the T/C [7] was 98 % of control and 112 % of control and the T/C [8] was 100 % of control.

With O=C1CN(c2ccccc2)CC(=O)N2Cc3ccccc3CN12 the T/C (dose: 100.0 mg/kg/injection, schedule: Q01DX005 (ip), vehicle: saline with Tween-80) was 101 % of control.

For Oc1ccccc1O.[O-]c1ccccc1[O-].[O-]c1ccccc1[O-].[O]=[V+2], the T/C (dose: 9.37 mg/kg/injection, schedule: Q01DX009 (ip), vehicle: saline) was 89 % of control, the T/C (dose: 9.37 mg/kg/injection, schedule: Q04DX003 (ip), vehicle: saline) was 100 % of control and the T/C (dose: 18.75 mg/kg/injection, schedule: Q01DX009 (ip), vehicle: saline) was 94 % of control. For the same compound, the T/C (dose: 18.75 mg/kg/injection, schedule: Q04DX003 (ip), vehicle: saline) was 109 % of control, the T/C (dose: 24.0 mg/kg/injection, schedule: Q04DX003 (ip), vehicle: saline) was 104 % of control and the T/C (dose: 24.7 mg/kg/injection, schedule: Q04DX003 (ip), vehicle: saline) was 100 % of control. The T/C (dose: 37.0 mg/kg/injection, schedule: Q04DX003 (ip), vehicle: saline) was 105 % of control, the T/C (dose: 37.5 mg/kg/injection, schedule: Q01DX009 (ip), vehicle: saline) was 89 % of control and the T/C (dose: 37.5 mg/kg/injection, schedule: Q04DX003 (ip), vehicle: saline) was 100 % of control. For the same compound, the T/C (dose: 55.0 mg/kg/injection, schedule: Q04DX003 (ip), vehicle: saline) was 100 % of control and the T/C (dose: 55.5 mg/kg/injection, schedule: Q04DX003 (ip), vehicle: saline) was 90 % of control.

With CC1(C)N=C(N)N=C(N)N1c1ccc(CCCCc2ccc(S(=O)(=O)F)cc2Cl)c(Cl)c1 the T/C (dose: 5.0 mg/kg/injection, schedule: Q01DX009 (ip), vehicle: saline with Tween-80) was 157 % of control, the T/C (dose: 7.5 mg/kg/injection, schedule: Q01DX009 (ip), vehicle: saline with Tween-80) was 150 % of control and 166 % of control and the T/C (dose: 8.0 mg/kg/injection, schedule: Q04DX003 (ip), vehicle: saline with Tween-80) was 168 % of control. For the same compound, the T/C (dose: 11.5 mg/kg/injection, schedule: Q01DX009 (ip), vehicle: saline with Tween-80) was 200 % of control, the T/C (dose: 12.0 mg/kg/injection, schedule: Q04DX003 (ip), vehicle: saline with Tween-80) was 186 % of control and the T/C (dose: 17.0 mg/kg/injection, schedule: Q01DX009 (ip), vehicle: saline with Tween-80) was 188 % of control and 191 % of control. For the same compound, the T/C (dose: 18.0 mg/kg/injection, schedule: Q04DX003 (ip), vehicle: saline with Tween-80) was 200 % of control, the T/C (dose: 25.0 mg/kg/injection, schedule: Q01DX009 (ip), vehicle: saline with Tween-80) was 208 % of control and 220 % of control and the T/C (dose: 26.0 mg/kg/injection, schedule: Q04DX003 (ip), vehicle: saline with Tween-80) was 200 % of control. The T/C (dose: 26.5 mg/kg/injection, schedule: Q04DX003 (ip), vehicle: saline with Tween-80) was 195 % of control, the T/C (dose: 37.0 mg/kg/injection, schedule: Q01DX009 (ip), vehicle: saline with Tween-80) was 176 % of control and the T/C (dose: 40.0 mg/kg/injection, schedule: Q04DX003 (ip), vehicle: saline with Tween-80) was 209 % of control. The T/C [6] was 241 % of control, the T/C (dose: 60.0 mg/kg/injection, schedule: Q04DX003 (ip), vehicle: saline with Tween-80) was 176 % of control and the T/C (dose: 88.0 mg/kg/injection, schedule: Q04DX003 (ip), vehicle: saline with Tween-80) was 209 % of control. For the same compound, the T/C (dose: 90.0 mg/kg/injection, schedule: Q04DX003 (ip), vehicle: saline with Tween-80) was 180 % of control, the T/C [7] was 116 % of control and the T/C (dose: 133.0 mg/kg/injection, schedule: Q04DX003 (ip), vehicle: saline with Tween-80) was 272 % of control. For the same compound, the T/C (dose: 200.0 mg/kg/injection, schedule: Q04DX003 (ip), vehicle: saline with Tween-80) was 272 % of control.

With CCOC(=O)CCCN(c1sc(C)c(-c2ccccc2)c1C(=O)OCC)S(=O)(=O)c1ccc(C)cc1 the T/C [7] was 109 % of control and the T/C [8] was 90 % of control.

With CC(C)=CCO the T/C [1] was 100 % of control, the T/C [2] was 104 % of control and the T/C [3] was 104 % of control.

For C[N+](C)(CC(=O)Nc1ccc(Cl)c(Cl)c1)CC(=O)c1ccc(Cl)c(Cl)c1, the T/C [9] was 87 % of control.

With O=C(Nc1ccccc1O)c1ccccc1 the T/C (dose: 100.0 mg/kg/injection, schedule: Q04DX003 (ip), vehicle: saline sonified) was 90 % of control, the T/C (dose: 200.0 mg/kg/injection, schedule: Q04DX003 (ip), vehicle: saline sonified) was 100 % of control and the T/C [9] was 90 % of control.

O=S1(=O)CCN(C2CCCCCCC2)CC1 was tested, and the T/C (dose: 50.0 mg/kg/injection, schedule: Q01DX009 (ip), vehicle: Klucel (hydroxypropylcellulose) (HPC)) was 115 % of control, the T/C [4] was 116 % of control and the T/C [5] was 104 % of control.

In the case of CC(=O)N(/N=C/c1cc(C=O)n(-c2ccccc2)n1)c1ccccc1, the T/C [6] is reported as 86 % of control, the T/C [7] is reported as 90 % of control and the T/C [8] is reported as 105 % of control.

With O=C(C/C(=N\C(=S)Nc1cc(C(F)(F)F)ccc1Cl)NO)N1CCCC1 the T/C [6] was 110 % of control.

In the case of O=c1ccc2cc(Cl)ccc2[nH]1, the T/C (dose: 50.0 mg/kg/injection, schedule: Q01DX001 (ip), vehicle: saline with Tween-80) is reported as 105 % of control and the T/C (dose: 100.0 mg/kg/injection, schedule: Q01DX001 (ip), vehicle: saline with Tween-80) is reported as 103 % of control.

CCP(CC)c1ccccc1 was tested, and the T/C (dose: 100.0 mg/kg/injection, schedule: Q01DX009 (sc), vehicle: olive oil, sesame oil, peanut oil) was 96 % of control, the T/C (dose: 100.0 mg/kg/injection, schedule: Q04DX003 (sc), vehicle: olive oil, sesame oil, peanut oil) was 92 % of control and the T/C (dose: 200.0 mg/kg/injection, schedule: Q01DX009 (sc), vehicle: olive oil, sesame oil, peanut oil) was 96 % of control. For the same compound, the T/C (dose: 200.0 mg/kg/injection, schedule: Q04DX003 (sc), vehicle: olive oil, sesame oil, peanut oil) was 100 % of control, the T/C (dose: 400.0 mg/kg/injection, schedule: Q01DX009 (sc), vehicle: olive oil, sesame oil, peanut oil) was 88 % of control and the T/C (dose: 400.0 mg/kg/injection, schedule: Q04DX003 (sc), vehicle: olive oil, sesame oil, peanut oil) was 92 % of control.

For CCC(CC)OCCN1CCN(CCCN2c3ccccc3Sc3ccc(C(F)(F)F)cc32)CC1, the T/C (dose: 5.0 mg/kg/injection, schedule: Q04DX003 (ip), vehicle: saline with Tween-80) was 103 % of control and 104 % of control, the T/C (dose: 10.0 mg/kg/injection, schedule: Q04DX003 (ip), vehicle: saline with Tween-80) was 108 % of control and 116 % of control and the T/C (dose: 20.0 mg/kg/injection, schedule: Q04DX003 (ip), vehicle: saline with Tween-80) was 122 % of control.

For CNC(=S)N1N=C(C)CC1=O, the T/C (dose: 37.5 mg/kg/injection, schedule: Q01DX009 (ip), vehicle: saline with Tween-80) was 106 % of control and the T/C (dose: 75.0 mg/kg/injection, schedule: Q01DX009 (ip), vehicle: saline with Tween-80) was 99 % of control.
